Here are results for 3 compounds from patent publication US20240390490A1, “PHARMACEUTICAL COMPOSITIONS FOR THE TREATMENT OF CANCERS” (Rutgers, The State University of New Jersey, priority 2021, published 2024).

One experiment relates to MDA-MB-231 cells. Kind of experiment: Cell cycle analysis (PI staining). Format: cell-based, human. As to conditions: 100 μM. The method, then:
Cell cycle analysis of breast cancer cells was carried out using propidium iodide (PI) staining protocol according to the manufacturer's instructions (Nexcelom Bioscience LLC, Lawrence, MA). […] Then, cells were harvested by trypsinization, centrifuged at 2000 rpm for 5 minutes, washed with PBS (pH 7.4), and fixed in ice cold 100% ethanol for 15 minutes. The cells were spun down and resuspended in 150 μl of PI-staining solution provided with the Cellometer PI Cell Cycle Kit. The PI-stained cells were then subjected to analysis in the Cellometer Vision instrument (Nexcelom Bioscience LLC) and the data was captured on Cellometer Vision CBA software (Nexcelom Bioscience LLC) and analyzed by FCS Express 4 software (Molecule Devices, Corp., Sunnyvale, CA). Differences in fluorescence intensity were used to determine the percentage of cells in each phase of the cell cycle and represented as histograms for control and drug-treated samples.

The subject of experiment [1] is MDA-MB-231-cell-derived xenografts. Kind of experiment: Histopathology, immunohistochemistry and western blot of xenograft tumors. Format: in vivo, rat. As to conditions: for level of E-cadherin in tumors / level of N-cadherin in tumors / levels of Snail, Slug, and Twist in tumors: immunoblotting; for level of CC3 in tumor tissue / levels of Bcl-xL and Bcl-2 in tumor tissue: western blot. The method, then:
At the end of the experiment, a portion of tumor tissues was fixed in 10% neutral buffered formalin overnight and embedded in paraffin, was cut into 5-μm-thick sections, and stained with H&E according to previous publications (8). Representative areas of tumor were analyzed for the presence of tumor cells and photographs were captured under a light microscope (20× magnification) as previously described.
For protein analyses, tumor tissues from in vivo experiments, enriched NK cells from the spleen, and NK-92 MI cancer cell co-incubated samples were lysed with a buffer containing protease and phosphatase inhibitors (25 mM Tris-HCl, pH 7.4; 150 mM NaCl; 1% Nonidet P-40; 1 mM EDTA; and 5% glycerol with Pierce Halt Protease Inhibitor). Protein ([…]) from total lysate was loaded and separated on a 4-20% SDS-PAGE and transferred overnight to polyvinylidene difluoride membranes. Membranes were incubated with primary Ab for 12 hours at 4° C. in blocking buffer, 5% w/v nonfat dry milk in TBS, and 0.1% Tween 20. The following primary antibodies were purchased from Santa Cruz Biotechnology (Santa Cruz, CA): anti-perforin rabbit polyclonal (1:250), anti-granzyme B mouse monoclonal (1:200), anti-IFN-γ mouse monoclonal (1:250), anti-Snail (1:200), anti-Slug (1:200), and anti-Twist. Anti-E-cadherin (1:250), anti-N-cadherin (1:250), and anti-NKG2D goat polyclonal (1:500) were all from Abcam (Cambridge, MA). Membranes were washed and incubated with peroxidase-conjugated secondary Abs (1:5000; Vector Laboratories) for 1 hour at room temperature. Membranes were incubated with ECL western blot chemiluminescence reagent (Pierce) and exposed to x-ray film, which was developed, and densitometry was performed using Image J analysis software (National Institutes of Health). Each protein was normalized to corresponding intensities for β-actin.
(§1) Thin paraffin sections (5 μm) of tumors were stained using the ABC Elite Vectastain Kit (Vector Labs) according to the manufacturer's instructions using various primary antibodies. Details of all primary antibodies used are described above. In addition, cell proliferation-associated antigen (Ki-67; 1:200) were purchased from Abcam. After the primary antibody incubation and PBS wash, sections were incubated with peroxidase-coupled anti-rabbit Ig ImmPRESS reagent (Vector Laboratories, Inc.). Antigen localization was achieved by using the 3,3′-diaminobenzidine-peroxidase reaction, and sections were dehydrated, and cover slipped. To evaluate the immunohistochemical staining, sections were photographed using a Nikon-TE 2000 inverted microscope. Intensity of staining was categorized as negative and strongly positive (27). Brown-stained spots are immuno positive cells. Data are means±SEM obtained from 3 serial sections of 5 to 6 animals in each group.

Experiment [2] relates to plasma cytokines and chemokines. Nature of the experiment: Plasma cytokines multiplex immunoassay. Format: in vivo, rat. The source says: After the end of the drug treatment period, plasma samples from control and drug-treated rats were processed and used for cytokine detection. Cytokines were quantified in plasma samples using the ProcartaPlex multiplex immunoassay technology. These immunoassays are bead-based assays for protein quantification based on the principles of a sandwich Elisa with the use of Luminex® xMAP® (multianalyte profiling) technology. The Rat Cytokine & Chemokine 22-plex ProcartaPlex Panel is a preconfigured multiplex immunoassay kit that measures 22 protein targets using Luminex xMAP technology. Plasma samples were diluted with universal assay buffer (1:1) and added into a 96-well flat bottom plate to the magnetic beads. The plate was sealed and covered before incubation of 2 hours at room temperature with 500 rpm shaking. After inserting the plate into the handheld magnetic plate washer, the plate was washed 3 times using a specific wash buffer. 25 μL of detection antibody mixture was to the plate and incubated it for 30 minutes at room temperature at 500 rpm. The plate was washed 3 times. Then 50 μL of SAPE solution were added to the plate before a novel 30-minute incubation at room temperature at 500 rpm. The plate was washed 3 times. Finally, 120 μL of reading buffer were add to the plate and incubated for 5 minutes at room temperature at 500 rpm before reading and analyzing with the Luminex™ instrument (MAGPIX® xPONENT®, R&D System, ThermoFisher). Median fluorescence index (MFI) was calculated and presented.

Experiment [3] deals with NK cells and macrophages in tumor tissues. Kind of experiment: Immunocytochemistry and flow cytometry of tumor-infiltrating immune cells. Format: in vivo, rat. On the procedure:
as §1
Tumor-infiltrating immune cells were collected from MDA-MB-231 cell xenograft tumors to examine and compare the immune cell population among control and drug-treated animals. Briefly, single-cell suspensions of tumor tissue were achieved by mincing the tissue with a scalpel blade using a crisscross method, ground with 1-ml of ACK lysing buffer to remove red blood cells. The cell suspensions were filtered through a 70-micron sieve and then washed with PBS. Cells from the tumor were collected and dispersed with 100 μl of PBS and stained by the addition of fluorescence-conjugated antibodies. For flow cytometry experiments, single-cell suspension derived from tumors, PBMC, and splenocytes were used to characterize the immune cell population. Fluorophore-conjugated antibodies were used to detect surface markers of specific cell types and markers are as follows: for NK cells (CD161a (10/78)), tissue macrophage (RT1B (OX-6)), dendritic cells (CD103 (OX-62)), peripheral monocytes (CD11b (ED8)), B cells (CD45RA (OX-33)), and DAPI (Sigma) was used to exclude dead cells.
Immune cells from the tumor, PBMC, and splenocyte samples were examined by following the gating strategy as described below. First, side scatter area (SSC-A) versus forward scatter area (FSC-A) were used to exclude cellular debris, then forward scatter height (FSC-H) versus FSC-A were used to select single cells. Single cells were sub-gated using DAPI viability dye and a further live cell population was used to select markers. Expression of a particular cell surface marker in a specific population of cells was identified and represented as single parameter histograms. Unstained cells and compensation beads (BD Biosciences, CA) were used to set voltages and create single stain negative and positive controls. Additional negative controls (isotype control and fluorescence minus one (FMO)) were also used to determine any non-specific binding in the present study. The data collected from each sample were exported and analyzed using FlowJo™ version 10.7.

In the case of `CC1(C)SSC(C)(C)[C@@H](NC(=O)[C@@H](N)Cc2ccc(O)cc2)C(=O)NCC(=O)N[C@@H](Cc2ccccc2)C(=O)N[C@H]1C(=O)O` [DPDPE, (D-Pen^2, D-Pen^5)-enkephalin], in the experiment with MDA-MB-231 cells, the “number of cells in G0/G1 phase” value was “reduced”, the “number of cells in G2/M phase” value was “increased” and the “number of cells in S phase” value is “no significant changes”. For the same compound, in experiment [1], the “level of E-cadherin in tumors” value is recorded as “increase”; the “level of N-cadherin in tumors” value is reported as “decrease”; the “levels of Snail, Slug, and Twist in tumors” value is on record as “reduced”; the “level of CC3 in tumor tissue” value was “increased”. Moreover, the “levels of Bcl-xL and Bcl-2 in tumor tissue” value (shortened to “levels … in tumor tissue”) in experiment [1] is on record as “decreased”. For the same compound, the “chemokines RANTES and MCP-1” value in experiment [2] is “inhibited”. Also, in experiment [3], the “percentage of CD161+ NK cells in the tumor tissues” value (from here on “percentage of CD161+ NK cells”) is recorded as “increased” and the “percentage of CD163+ macrophages in the tumor tissues” value (“percentage of CD163+ macrophages” below) is “decreased”.

Take `O=C1CC[C@@]2(O)[C@H]3Cc4ccc(O)c5c4[C@@]2(CCN3CC2CC2)[C@H]1O5` [NTX, 17-(cyclopropylmethyl)-4,5α-epoxy-3,14-dihydroxymorphinan-6-one]: in the experiment on MDA-MB-231 cells, the “number of cells in G0/G1 phase” value is given as “reduced”, the “number of cells in G2/M phase” value is given as “increased” and the “number of cells in S phase” value is “no significant changes”. In experiment [1], the “level of CC3 in tumor tissue” value is “increased”; the “levels … in tumor tissue” value is given as “decreased”. For the same compound, in experiment [2], the IFN-γ entry is “elevated”; the “chemokines RANTES and MCP-1” value is on record as “inhibited”. In addition, in experiment [3], the “percentage of CD161+ NK cells” value is listed as “increased” and the “percentage of CD163+ macrophages” value is “decreased”.

For `CC(C)NCC(O)COc1cccc2ccccc12` (stereo not drawn) [PRO, propranolol], in the experiment with MDA-MB-231 cells, the “number of cells in G0/G1 phase” value is “reduced”, the “number of cells in G2/M phase” value is on record as “increased” and the “number of cells in S phase” value is “no significant changes”. Further, in experiment [1], the “level of E-cadherin in tumors” value is listed as “increase”; the “level of N-cadherin in tumors” value is on record as “decrease”; the “levels of Snail, Slug, and Twist in tumors” value is reported as “reduced”; the “level of CC3 in tumor tissue” value was “increased”. In addition, the “levels … in tumor tissue” value in experiment [1] was “decreased”. Moreover, in experiment [2], the IFN-γ entry is reported as “elevated”; the “chemokines RANTES and MCP-1” value is recorded as “inhibited”; the “inflammatory cytokines and chemokines G-CSF/CSF-3, IL-1 alpha, IL-10, IL-6, IL-5, Gro-α, TNF-α, MCP-3, and IL-17A” value is recorded as “inhibited”. Moreover, in experiment [3], the “percentage of CD161+ NK cells” value is recorded as “increased” and the “percentage of CD163+ macrophages” value is on record as “decreased”.
